Test system: Candida albicans ATCC 10231
Assay: Antimicrobial activity, 6 hr log kill of C. albicans
Assay type: cell-based
Experimental: The test procedure for testing antimicrobial activity against specified test organisms is as follows: A 10-mL aliquot of test sample was transferred into a single polypropylene test tube. Sterile Dulbecco's Phosphate-Buffered Saline with 0.05 w/v % Polysorbate 80 (DPBST) was transferred into a separate polypropylene test tube and used as a control. All samples and control were stored at 20-25° C. throughout the duration of the test. Test cultures of specified test organisms were cultured and prepared in the conventional manner using Saboraud Dextrose Agar (SDA) as the growth medium. The challenge organism inoculum was adjusted to approximately 1×10e7-1×10e8 CFU/mL in DPBST. Fifty μL of culture inoculum was added to 10.0 mL of each test sample and control, so that the final inoculum level was in the range of 1×10e5 to 1×10e6 CFU (colony forming units) per mL of specified test organism. Contact time intervals for testing activity against the specified test organism were typically within 4 or 6 hours, e.g., 15 minutes, 30 minutes, 45 minutes, 1 hour, 2 hours, 4 hours and 6 hours, to remain within the intended product label instructions for maximum contact lens soak time.
Following incubation, the number of surviving organisms was enumerated by serial dilution and culture on SDA medium. An appropriate neutralizing disinfectant medium was used for performing serial dilutions (e.g. Letheen Neutralizing Broth containing 0.5% Polysorbate 80 media—LetheenT80). Additionally, the numbers of colony-forming-units (CFU) were counted and the Log 10 reduction in viable number calculated for test solutions based on the initial time zero challenge inoculum in the control solution.

[1] = Table II formula, 6 hour soaking

## CCCCC(CC)CNC(=N)NC(=N)NCCCCCCNC(=N)NC(=N)NCC(CC)CCCC (stereo not drawn) [alexidine]
1.05 ppm alexidine, 6 hours, C. albicans
  log kill from alexidine alone in the same formula: about 1.4 log
Alexidine at 1.00 ppm in Table 1 formula, 6 hour soaking
  log kill of C. albicans (FIG. 1): 1.3 log

## [H]/N=C(\N/C(=N/[H])NCCCCCCNC(=N)NC(=N)Nc1ccc(Cl)cc1)Nc1ccc(Cl)cc1 [chlorhexidine]
5.00 ppm chlorhexidine, 6 hours, C. albicans
  log kill from chlorhexidine alone in the same formula: about 0.5 log
[1]
  chlorhexidine concentration needed to achieve a 2-log kill against C. albicans (FIG. 2): > 12 ppm
  chlorhexidine concentration needed to achieve a 3-log kill against C. albicans (FIG. 2): > 15 ppm

## poly[(dimethyliminio)-2-butene-1,4-diyl chloride], α-[4-[tris(2-hydroxyethyl) ammonio]-2-butenyl]-Ω-[tris(2-hydroxyethyl)ammonio]-dichloride [PQ-1]
In the presence of 0.65% trisodium citrate dihydrate
  effect of PQ-1 on C. albicans (in words): little effect

Reference: patent US9132106B2, “Synergistic ophthalmic compositions for disinfecting contact lenses” (Abbott Medical Optics Inc., priority 2013, dated 2015)
